These molecules were tested against FASN enzyme (Homo sapiens, UniProt P49327) (assay: Enzymatic Assay for FASN Inhibitors). Details: not given.
Assay type: biochemical
Outline: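 40 nM FASN preincubated with compound 60 min at 25° C in HEPES pH 7.3 buffer with 0.04% Triton X-100. Then 20 μM acetyl-CoA, 60 μM malonyl-CoA and 100 μM NADPH added for 90 min, quenched with CPM thiol probe; fluorescence 360/530 nm, IC50 by four-parameter fit.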

FASN enzyme, sequence (P49327 whole entry): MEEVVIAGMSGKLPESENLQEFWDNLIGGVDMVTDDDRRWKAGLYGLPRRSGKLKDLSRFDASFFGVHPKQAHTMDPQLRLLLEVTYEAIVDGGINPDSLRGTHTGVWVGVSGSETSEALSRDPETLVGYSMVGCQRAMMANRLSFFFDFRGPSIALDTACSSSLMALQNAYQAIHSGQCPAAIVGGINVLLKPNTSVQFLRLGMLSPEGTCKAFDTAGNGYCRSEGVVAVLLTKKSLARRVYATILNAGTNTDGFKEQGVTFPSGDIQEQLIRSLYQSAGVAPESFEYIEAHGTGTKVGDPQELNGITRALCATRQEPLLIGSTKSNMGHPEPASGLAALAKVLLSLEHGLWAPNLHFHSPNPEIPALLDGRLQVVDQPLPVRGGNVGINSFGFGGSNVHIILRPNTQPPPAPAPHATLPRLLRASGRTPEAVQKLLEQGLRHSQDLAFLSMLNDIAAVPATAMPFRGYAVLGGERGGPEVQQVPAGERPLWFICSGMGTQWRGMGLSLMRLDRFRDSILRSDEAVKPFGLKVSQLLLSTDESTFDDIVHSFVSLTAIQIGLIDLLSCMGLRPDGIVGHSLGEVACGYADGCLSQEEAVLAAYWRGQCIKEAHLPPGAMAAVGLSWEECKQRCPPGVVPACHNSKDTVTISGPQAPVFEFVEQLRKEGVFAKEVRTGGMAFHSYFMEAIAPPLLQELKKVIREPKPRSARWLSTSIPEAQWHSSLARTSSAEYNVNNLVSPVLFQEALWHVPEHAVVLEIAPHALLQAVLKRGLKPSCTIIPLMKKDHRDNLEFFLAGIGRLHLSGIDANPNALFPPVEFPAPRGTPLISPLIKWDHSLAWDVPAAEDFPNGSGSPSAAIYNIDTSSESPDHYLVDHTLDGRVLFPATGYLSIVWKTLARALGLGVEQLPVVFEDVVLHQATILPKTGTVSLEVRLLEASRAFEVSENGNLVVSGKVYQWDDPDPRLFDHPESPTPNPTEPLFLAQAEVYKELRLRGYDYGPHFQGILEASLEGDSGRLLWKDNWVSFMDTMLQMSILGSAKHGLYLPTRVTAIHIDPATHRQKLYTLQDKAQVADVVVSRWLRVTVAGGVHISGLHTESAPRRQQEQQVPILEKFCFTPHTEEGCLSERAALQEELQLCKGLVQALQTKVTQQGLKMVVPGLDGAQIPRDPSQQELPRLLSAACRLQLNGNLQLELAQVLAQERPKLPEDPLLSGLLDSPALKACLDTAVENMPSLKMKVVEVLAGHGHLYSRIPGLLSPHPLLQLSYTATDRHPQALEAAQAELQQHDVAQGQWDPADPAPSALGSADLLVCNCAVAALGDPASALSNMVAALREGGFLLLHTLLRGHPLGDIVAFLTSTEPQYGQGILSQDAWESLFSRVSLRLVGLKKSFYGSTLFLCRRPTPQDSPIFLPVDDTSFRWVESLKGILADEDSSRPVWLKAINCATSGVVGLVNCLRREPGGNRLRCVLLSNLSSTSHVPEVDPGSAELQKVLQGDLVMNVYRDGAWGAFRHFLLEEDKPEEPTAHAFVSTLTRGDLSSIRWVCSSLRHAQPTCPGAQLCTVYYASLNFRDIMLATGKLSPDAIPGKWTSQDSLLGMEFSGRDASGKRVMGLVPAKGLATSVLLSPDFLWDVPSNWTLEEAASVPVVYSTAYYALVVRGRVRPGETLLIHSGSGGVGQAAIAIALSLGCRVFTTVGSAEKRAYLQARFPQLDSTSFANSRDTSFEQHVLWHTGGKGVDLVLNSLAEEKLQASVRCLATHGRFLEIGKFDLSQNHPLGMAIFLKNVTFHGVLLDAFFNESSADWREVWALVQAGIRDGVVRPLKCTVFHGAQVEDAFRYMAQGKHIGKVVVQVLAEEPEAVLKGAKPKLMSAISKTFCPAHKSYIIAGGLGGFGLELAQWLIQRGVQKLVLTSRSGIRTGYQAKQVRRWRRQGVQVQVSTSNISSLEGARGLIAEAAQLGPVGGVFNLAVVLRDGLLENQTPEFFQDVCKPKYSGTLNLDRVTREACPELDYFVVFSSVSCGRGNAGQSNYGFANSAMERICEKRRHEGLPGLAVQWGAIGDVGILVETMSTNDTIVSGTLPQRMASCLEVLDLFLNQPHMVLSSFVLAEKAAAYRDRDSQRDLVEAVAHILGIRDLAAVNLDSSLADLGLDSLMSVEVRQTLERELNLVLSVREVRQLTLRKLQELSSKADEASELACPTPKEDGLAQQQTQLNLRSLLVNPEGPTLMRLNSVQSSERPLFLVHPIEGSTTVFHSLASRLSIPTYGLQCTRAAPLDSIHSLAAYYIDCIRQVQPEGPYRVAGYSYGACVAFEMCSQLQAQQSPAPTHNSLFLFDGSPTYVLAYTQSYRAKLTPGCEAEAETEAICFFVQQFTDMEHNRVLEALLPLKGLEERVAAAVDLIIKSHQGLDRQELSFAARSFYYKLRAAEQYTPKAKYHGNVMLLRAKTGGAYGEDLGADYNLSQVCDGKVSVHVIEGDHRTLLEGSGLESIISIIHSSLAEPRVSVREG

Row | IC50 | SMILES
1 | < 500 nM | Cn1ccc2cc(-c3cnc(C(=O)N4CCN(C(=O)C5(O)CC5)CC4)cn3)ccc21 [1-[(4-{[5-(1-methyl-1H-indol-5-yl)pyrazin-2-yl]carbonyl}piperazin-1-yl)carbonyl]cyclopropan-1-ol]
2 | < 500 nM | O=C(c1ccc(-c2cccc(NS(=O)(=O)CC3CCC3)c2)cc1)N1CCN(C(=O)C2(O)CC2)CC1 [1-cyclobutyl-N-(3-{4-[4-(1-hydroxycyclopropanecarbonyl)piperazine-1-carbonyl]phenyl}phenyl)methanesulfonamide]
3 | < 500 nM | O=C(c1ccc(-c2cccc(NS(=O)(=O)CC3CC3)c2)cc1)N1CCN(C(=O)C2(O)CC2)CC1 [1-cyclopropyl-N-(3-{4-[4-(1-hydroxycyclopropanecarbonyl)piperazine-1-carbonyl]phenyl}phenyl)methanesulfonamide]
4 | < 500 nM | Cn1cnc2cc(-c3ccc(C(=O)N4CCN(C(=O)C5CCO5)CC4)cc3)ccc21 (stereo not drawn) [1-methyl-5-{4-[4-(oxetane-2-carbonyl)piperazine-1-carbonyl]phenyl}-1H-1,3-benzodiazole]

Further lines, the molecule ahead of its results:

Row | SMILES | IC50
5 | O=C(c1ccc(-c2ccc(Cl)c(Cl)c2)cc1)N1CCN(C(=O)C2(O)CC2)CC1 [1-[(4-{[4-(3,4-dichlorophenyl)phenyl]carbonyl}piperazin-1-yl)carbonyl]cyclopropan-1-ol] | < 500 nM
6 | O=C(c1ccc(-c2cccc(Cl)c2)cc1)N1CCN(C(=O)C2(O)CC2)CC1 [1-[(4-{[4-(3-chlorophenyl)phenyl]carbonyl}piperazin-1-yl)carbonyl]cyclopropan-1-ol] | < 500 nM
7 | COc1cc(Cl)ccc1-c1ccc(C(=O)N2CCN(C(=O)C3(O)CC3)CC2)cc1 [1-[(4-{[4-(4-chloro-2-methoxyphenyl)phenyl]carbonyl}piperazin-1-yl)carbonyl]cyclopropan-1-ol] | < 500 nM
8 | O=C(c1ccc(-c2ccc(Cl)c(F)c2)cc1)N1CCN(C(=O)C2(O)CC2)CC1 [1-[(4-{[4-(4-chloro-3-fluorophenyl)phenyl]carbonyl}piperazin-1-yl)carbonyl]cyclopropan-1-ol] | < 500 nM
9 | O=C(c1ccc(-c2nc3cc(Cl)ccc3[nH]2)cc1)N1CCN(C(=O)C2(O)CC2)CC1 [1-[(4-{[4-(5-chloro-1H-1,3-benzodiazol-2-yl)phenyl]carbonyl}piperazin-1-yl)carbonyl]cyclopropan-1-ol] | < 500 nM
10 | O=C(c1ccc(-c2ccc3cc(F)ccc3n2)cc1)N1CCN(C(=O)C2(O)CC2)CC1 [1-[(4-{[4-(6-fluoroquinolin-2-yl)phenyl]carbonyl}piperazin-1-yl)carbonyl]cyclopropan-1-ol] | < 500 nM
11 | O=C(c1ccc(-c2cnc3ccccc3c2)cc1)N1CCN(C(=O)C2(O)CC2)CC1 [1-[(4-{[4-(quinolin-3-yl)phenyl]carbonyl}piperazin-1-yl)carbonyl]cyclopropan-1-ol] | < 500 nM

Same assay, conditions: FASN enzymatic assay; Table 2-2

Row | IC50 | SMILES
12 | 500 to 5000 nM | Cc1nc(-c2ccc3c(ccn3C)c2)sc1C(=O)N1CCN(C(=O)C2(O)CC2)CC1 [1-[(4-{[4-methyl-2-(1-methyl-1H-indol-5-yl)-1,3-thiazol-5-yl]carbonyl}piperazin-1-yl)carbonyl]cyclopropan-1-ol]
13 | 500 to 5000 nM | Cc1nc(-c2cnc3ccccc3c2)sc1C(=O)N1CCN(C(=O)C2(O)CC2)CC1 [1-[(4-{[4-methyl-2-(quinolin-3-yl)-1,3-thiazol-5-yl]carbonyl}piperazin-1-yl)carbonyl]cyclopropan-1-ol]
14 | 500 to 5000 nM | COc1ccc2cc(-c3ccc(C(=O)N4CCN(C(=O)C5(O)CC5)CC4)nc3)ccc2n1 [1-[(4-{[5-(2-methoxyquinolin-6-yl)pyridin-2-yl]carbonyl}piperazin-1-yl)carbonyl]cyclopropan-1-ol]
15 | 500 to 5000 nM | O=C(c1ccc(-c2ccc(Cl)cc2F)cn1)N1CCN(C(=O)C2(O)CC2)CC1 [1-[(4-{[5-(4-chloro-2-fluorophenyl)pyridin-2-yl]carbonyl}piperazin-1-yl)carbonyl]cyclopropan-1-ol]
16 | 500 to 5000 nM | O=C(c1ncc(-c2ccc(Cl)cc2F)cn1)N1CCN(C(=O)C2(O)CC2)CC1 [1-[(4-{[5-(4-chloro-2-fluorophenyl)pyrimidin-2-yl]carbonyl}piperazin-1-yl)carbonyl]cyclopropan-1-ol]
17 | 500 to 5000 nM | O=C(c1cnc(-c2cnc3ccccc3c2)cn1)N1CCN(C(=O)C2(O)CC2)CC1 [1-[(4-{[5-(quinolin-3-yl)pyrazin-2-yl]carbonyl}piperazin-1-yl)carbonyl]cyclopropan-1-ol]
18 | 500 to 5000 nM | O=C(c1cnc(-c2ccc3ncccc3c2)cn1)N1CCN(C(=O)C2(O)CC2)CC1 [1-[(4-{[5-(quinolin-6-yl)pyrazin-2-yl]carbonyl}piperazin-1-yl)carbonyl]cyclopropan-1-ol]
19 | 500 to 5000 nM | O=C(c1ncc(-c2ccc3ncccc3c2)cn1)N1CCN(C(=O)C2(O)CC2)CC1 [1-[(4-{[5-(quinolin-6-yl)pyrimidin-2-yl]carbonyl}piperazin-1-yl)carbonyl]cyclopropan-1-ol]
20 | 500 to 5000 nM | COc1ccc2cc(-c3ccc(C(=O)N4CCN(C(=O)C5(O)CC5)CC4)cn3)ccc2n1 [1-[(4-{[6-(2-methoxyquinolin-6-yl)pyridin-3-yl]carbonyl}piperazin-1-yl)carbonyl]cyclopropan-1-ol]
21 | 500 to 5000 nM | O=C(c1ccc(-c2ccc3ncccc3c2)nc1)N1CCN(C(=O)C2(O)CC2)CC1 [1-[(4-{[6-(quinolin-6-yl)pyridin-3-yl]carbonyl}piperazin-1-yl)carbonyl]cyclopropan-1-ol]

More lines, now with the values behind:

Row | SMILES | IC50
22 | Cc1ccc(F)c(-c2ccc(C(=O)N3CCN(C(=O)C4(O)CC4)CC3)cc2)c1 [1-[(4-{[4-(2-fluoro-5-methylphenyl)phenyl]carbonyl}piperazin-1-yl)carbonyl]cyclopropan-1-ol] | 500 to 5000 nM
23 | Cc1ccc(-c2ccc(C(=O)N3CCN(C(=O)C4(O)CC4)CC3)cc2)cc1F [1-[(4-{[4-(3-fluoro-4-methylphenyl)phenyl]carbonyl}piperazin-1-yl)carbonyl]cyclopropan-1-ol] | 500 to 5000 nM
24 | Cc1noc2cc(-c3ccc(C(=O)N4CCN(C(=O)C5(O)CC5)CC4)cc3)ccc12 [1-[(4-{[4-(3-methyl-1,2-benzoxazol-6-yl)phenyl]carbonyl}piperazin-1-yl)carbonyl]cyclopropan-1-ol] | 500 to 5000 nM
25 | O=C(c1ccc(-c2nc3c(Cl)cccc3[nH]2)cc1)N1CCN(C(=O)C2(O)CC2)CC1 [1-[(4-{[4-(4-chloro-1H-1,3-benzodiazol-2-yl)phenyl]carbonyl}piperazin-1-yl)carbonyl]cyclopropan-1-ol] | 500 to 5000 nM
26 | O=C(c1ccc(-c2nc3cc(F)c(F)cc3[nH]2)cc1)N1CCN(C(=O)C2(O)CC2)CC1 [1-[(4-{[4-(5,6-difluoro-1H-1,3-benzodiazol-2-yl)phenyl]carbonyl}piperazin-1-yl)carbonyl]cyclopropan-1-ol] | 500 to 5000 nM
27 | O=C(c1ccc(-c2nc3cc(F)ccc3[nH]2)cc1)N1CCN(C(=O)C2(O)CC2)CC1 [1-[(4-{[4-(5-fluoro-1H-1,3-benzodiazol-2-yl)phenyl]carbonyl}piperazin-1-yl)carbonyl]cyclopropan-1-ol] | 500 to 5000 nM
28 | COc1ccc2[nH]c(-c3ccc(C(=O)N4CCN(C(=O)C5(O)CC5)CC4)cc3)nc2c1 [1-[(4-{[4-(5-methoxy-1H-1,3-benzodiazol-2-yl)phenyl]carbonyl}piperazin-1-yl)carbonyl]cyclopropan-1-ol] | 500 to 5000 nM
29 | O=C(c1ccc(-c2ccc3ncccc3c2)cc1C(F)(F)F)N1CCN(C(=O)C2(O)CC2)CC1 [1-[(4-{[4-(quinolin-6-yl)-2-(trifluoromethyl)phenyl]carbonyl}piperazin-1-yl)carbonyl]cyclopropan-1-ol] | 500 to 5000 nM

Same assay, conditions: FASN enzymatic assay; Table 2-3

Row | IC50 | SMILES
30 | ≥ 5000 nM | O=C(c1ccc(-c2ccc(Cl)cc2F)nc1)N1CCN(C(=O)C2(O)CC2)CC1 [1-[(4-{[6-(4-chloro-2-fluorophenyl)pyridin-3-yl]carbonyl}piperazin-1-yl)carbonyl]cyclopropan-1-ol]
31 | ≥ 5000 nM | O=C(c1cn2cc(-c3ccc(F)cc3)ccc2n1)N1CCN(C(=O)C2(O)CC2)CC1 [1-[(4-{[6-(4-fluorophenyl)imidazo[1,2-a]pyridin-2-yl]carbonyl}piperazin-1-yl)carbonyl]cyclopropan-1-ol]

Further lines, the molecule ahead of its results:

Row | SMILES | IC50
32 | COc1c(F)cccc1-c1ccc(C(=O)N2CCN(C(=O)C3(O)CC3)CC2)cc1 [1-[(4-{[4-(3-fluoro-2-methoxyphenyl)phenyl]carbonyl}piperazin-1-yl)carbonyl]cyclopropan-1-ol] | ≥ 5000 nM
33 | COc1cnccc1-c1ccc(C(=O)N2CCN(C(=O)C3(O)CC3)CC2)cc1 [1-[(4-{[4-(3-methoxypyridin-4-yl)phenyl]carbonyl}piperazin-1-yl)carbonyl]cyclopropan-1-ol] | ≥ 5000 nM
34 | Cc1cccc(-c2ccc(C(=O)N3CCN(C(=O)C4(O)CC4)CC3)cc2)c1 [1-[(4-{[4-(3-methylphenyl)phenyl]carbonyl}piperazin-1-yl)carbonyl]cyclopropan-1-ol] | ≥ 5000 nM
35 | COc1cc(F)c(F)cc1-c1ccc(C(=O)N2CCN(C(=O)C3(O)CC3)CC2)cc1 [1-[(4-{[4-(4,5-difluoro-2-methoxyphenyl)phenyl]carbonyl}piperazin-1-yl)carbonyl]cyclopropan-1-ol] | ≥ 5000 nM
36 | Cc1ccc(-c2ccc(C(=O)N3CCN(C(=O)C4(O)CC4)CC3)cc2)cc1 [1-[(4-{[4-(4-methylphenyl)phenyl]carbonyl}piperazin-1-yl)carbonyl]cyclopropan-1-ol] | ≥ 5000 nM
37 | Cc1ccc(F)cc1-c1ccc(C(=O)N2CCN(C(=O)C3(O)CC3)CC2)cc1 [1-[(4-{[4-(5-fluoro-2-methylphenyl)phenyl]carbonyl}piperazin-1-yl)carbonyl]cyclopropan-1-ol] | ≥ 5000 nM
38 | O=C(c1ccc(-c2cncc(F)c2)cc1)N1CCN(C(=O)C2(O)CC2)CC1 [1-[(4-{[4-(5-fluoropyridin-3-yl)phenyl]carbonyl}piperazin-1-yl)carbonyl]cyclopropan-1-ol] | ≥ 5000 nM
39 | Cc1ccc(-c2ccc(C(=O)N3CCN(C(=O)C4(O)CC4)CC3)cc2)cn1 [1-[(4-{[4-(6-methylpyridin-3-yl)phenyl]carbonyl}piperazin-1-yl)carbonyl]cyclopropan-1-ol] | ≥ 5000 nM

Reference: patent publication US10457655B2, “Compounds and compositions for inhibition of FASN” (FORMA Therapeutics, Inc., priority 2013, dated 2019)
